# Target: T1, rTG-2 (recombinant human tissue transglutaminase-2) (Homo sapiens, UniProt P21980)
# T1 construct: purchased Tocris Bioscience
# T1 sequence (P21980 1-687): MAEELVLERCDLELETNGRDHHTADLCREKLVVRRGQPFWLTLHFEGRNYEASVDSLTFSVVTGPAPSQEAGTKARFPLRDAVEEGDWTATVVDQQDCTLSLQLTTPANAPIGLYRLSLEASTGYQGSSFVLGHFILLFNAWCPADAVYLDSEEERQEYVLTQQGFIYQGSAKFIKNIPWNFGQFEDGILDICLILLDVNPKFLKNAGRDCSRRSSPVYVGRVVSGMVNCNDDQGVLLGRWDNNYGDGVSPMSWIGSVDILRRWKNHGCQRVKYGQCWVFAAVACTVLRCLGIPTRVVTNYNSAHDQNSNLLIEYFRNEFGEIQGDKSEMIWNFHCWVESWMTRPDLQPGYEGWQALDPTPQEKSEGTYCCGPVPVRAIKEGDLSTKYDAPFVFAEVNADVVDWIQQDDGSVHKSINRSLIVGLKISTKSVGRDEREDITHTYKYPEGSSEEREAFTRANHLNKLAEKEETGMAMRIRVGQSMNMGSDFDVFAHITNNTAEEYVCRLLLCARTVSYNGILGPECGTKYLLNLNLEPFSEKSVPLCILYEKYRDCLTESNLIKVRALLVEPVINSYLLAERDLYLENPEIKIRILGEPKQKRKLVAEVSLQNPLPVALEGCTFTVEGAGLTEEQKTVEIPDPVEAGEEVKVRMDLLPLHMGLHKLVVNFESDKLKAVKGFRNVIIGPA
# Assay: bisubstrate, fluorescence-based trans-glutamination assay with recombinant TG-2
# Format: biochemical
# From the text: FXIIIa and TG-2 belong to the same transglutaminase superfamily, and they share similar protein folds with a sequence similarity of 34%. Although we believe that sulfonated heparin mimetics are less likely to distribute to peripheral tissues, we evaluated inhibitor 16′s potential to inhibit TG-2 (we used recombinant TG-2). […] Likewise, we studied the inhibition of papain, a related cysteine protease, by molecule 16.
# Human plasma proteins such as FXIIIa, thrombin, factor Xa, and factor XIa were procured from Haematologic Technologies. Recombinant human TG-2 was sourced from Tocris Bioscience. Their activities were validated according to the supplier’s instructions. Chromogenic substrates for thrombin and factor Xa were acquired from Biomedica Diagnostics, while the factor XIa chromogenic substrate (S-2366) was obtained from Diapharma. Dithiothreitol, N,N-dimethylcasein, and dansylcadaverine were purchased from Sigma Aldrich. Stock solutions of thrombin and factor XIa were prepared in 50 mM Tris-HCl buffer, pH 7.4, containing 150 mM sodium chloride, 0.1% PEG8000, and 0.02% Tween80. The stock solution of factor Xa was prepared in 20 mM Tris-HCl buffer, pH 7.4, containing 100 mM sodium chloride, 0.1% PEG8000, 2.5 mM CaCl2, and 0.02% Tween80. The stock solutions of FXIIIa and rTG-2 were prepared in 50 mM Tris-HCl, 1 mM CaCl2, 100 mM sodium chloride, 0.02% Tween80, 0.1% PEG8000, and 2 mg/mL dimethylcasein. Papain and its chromogenic substrate (N-α-benzoyl-L-arginyl-4-nitroanilide) were obtained from Sigma Aldrich. Papain was prepared in 50 mM Tris-HCl buffer, pH 7.4, containing 100 mM NaCl, 100 mM DTT, 2.5 mM CaCl2, 0.1% PEG8000, and 0.02% Tween80. Human plasma for coagulation assays was obtained from George King Bio-Medica for the clotting assays. Thromboplastin-D (PT reagent), APTT reagent containing ellagic acid, and 0.025 M solution of CaCl2 were obtained from Thermo Fisher Scientific. Results were reproduced at least three times.
# For tissue TG-2, a recombinant protein (rTG-2) was used in a bisubstrate, fluorescence-based trans-glutamination assay involving dansylcadaverine and N,N-dimethylcasein as substrates and under similar conditions used for human FXIIIa above. The activity of rTG-2 was monitored following the addition of 5 μL of dansylcadaverine (2 mM) by measuring the initial rate of increase in fluorescence emission (λEx. = 360 nm and λEm. = 490 nm). Relative residual rTG-2 activity at each concentration of inhibitor 16 was calculated from the ratio of rTG-2 activity in the presence and absence of the inhibitor. Logistic eq 1 was used to fit the concentration dependence of residual rTG-2 activity to obtain the IC50 and ΔY% of inhibition.
smiles,measurement,setting,value
Nc1c(/N=N/c2ccc(S(=O)(=O)CCOS(=O)(=O)O)cc2)c(S(=O)(=O)O)cc2cc(S(=O)(=O)O)c(/N=N/c3ccc(S(=O)(=O)CCOS(=O)(=O)O)cc3)c(O)c12 [compound 16],selectivity for FXIIIa over rTG-2,,9 fold
same,IC50,recombinant TG-2,18.1 ± 3.1 µM
same,rTG-2 HS (Hill slope),recombinant TG-2,2.2 ± 0.9
same,rTG-2 ΔY,recombinant TG-2,86 ± 7%

# — paper PMC11256326, “Discovery of Heparin Mimetic, Potent, and Selective Inhibitors of Human Clotting Factor XIIIa” (ACS Omega, 2024)
